Experimental data from US7053215B2, “Substituted Quinazolin-4(3H)-one compounds, compositions, and methods for their use” (Amgen SF, LLC, priority 2000, dated 2006).

melting point: 159.2 °C
Compound: CC(c1nc2ccccc2c(=O)n1-c1ccc(F)cc1)N(Cc1ccccn1)C(=O)Cc1ccc(C(F)(F)F)cc1.Cl (stereo not shown)
